Here are results for four molecules from patent US20060160773A1, “Combretastatin derivatives with cytotoxic action” (priority 2003, published 2006).

The term IC50 denotes the midpoint of a concentration-inhibition curve.

Series [1] relates to A2780 human ovarian carcinoma line. In words: Cytotoxicity test (sulforodamine B), A2780. The series is classed as cell-based. The following applies: Homo sapiens, A2780, read-out: IC50 ± SE. The protocol:
(§1) The cytotoxic effect of our derivatives was evaluated in series of human and murine cell lines.
(§2) The M109 murine lung cancer line, the HT29 human colon adenocarcinoma line, the A2780 human ovarian carcinoma line, obtained from the Milan Tumour Institute, were cultured in RPMI containing 10% FBS and antibiotics.
(§3) For the cytotoxicity test the cells were seeded at variable densities according to cell type in 96-well plates in normal culture medium (200 μl/well) and incubated for 24 hours at 37° C. On the next day, the study substances were added at scalar concentrations and the cells were incubated for a further 24 hours at 37° C. in a humidified atmosphere containing 5% CO2. At the end of the incubation period the medium containing the substances was removed and three washings with PBS were performed. At the end of the washings 200 μl/well of fresh medium were added and the plates were incubated at 37° C. for a further 48 hours. At the end of this incubation period the culture medium was removed by overturning the plates and 200 μl/well of PBS and 50 μl of 80% cold trichloroacetic acid (TCA) were added. The plates were then incubated in ice. After 1 h the TCA was removed, the plates were washed three times by immersion in distilled water and dried first on blotting paper and then in the oven. 200 μl of 0.4% sulforodamine B in 1% acetic acid were then added to all wells. The plates were incubated at room temperature for a further 30 minutes. The sulforodamine B was removed by overturning, the plates were washed three times by immersion in 1% acetic acid, and then dried first on blotting paper and then in the oven. 200 μl of Tris base 10 mM were then added to all wells and the plates were placed under stirring for at least 20 min. The optical density was measured by spectrophotometric readout at 540 nm.
(§4) In the same table are reported the IC50 of ST2897, ST2898 and ST2899 on BMEC.

The test system of series [2] is HCT 116 human colorectal carcinoma. In words: Cytotoxicity test (sulforodamine B), HCT 116. The class given is cell-based. As to conditions: Homo sapiens, HCT-116, read-out: IC50 ± SE. The protocol: as §1
(§5) The following cell lines, purchased from ATCC, were cultured according to the manufacturer's instructions: MeWo human melanoma, NCI-H460 human lung cancer, LoVo human colon adenocarcinoma, PC3 human prostate carcinoma, MES-SA human uterine sarcoma, HCT 116 human colorectal carcinoma, MCF-7 human breast carcinoma.
as §3, §4

Series [3] has as its system NCI-H460 human lung cancer. In words: Cytotoxicity test (sulforodamine B), NCI-H460. The class given is cell-based. The following applies: Homo sapiens, NCI-H460, read-out: IC50 ± SE. The protocol:
as §1, §5, §3, §4

In series [4] the test system is Bovine microcirculatory endothelial cells (BMEC). The series can be described thus: Cytotoxicity test (sulforodamine B), BMEC. The series is classed as cell-based. As to conditions: Bos taurus, Endothelial cell, read-out: IC50 ± SE. Here is the method:
as §1
(§6) Bovine microcirculatory endothelial cells (BMEC), isolated from bovine adrenal glands, were maintained in culture in DMEM containing 20% FBS, 50 μg/ml of bovine brain extract (BBE), 50 units/ml of heparin (SIGMA), 100 units/ml of gentami-cin (SIGMA) and 10 mg/ml of L-glutamine (Hyclone). EA-hy926, an immortalised hybridoma of HUVEC and adenocarcinoma cells, obtained from the University of Bari Department of Biomedical Sciences and Human Oncology, was cultured in DMEM added with 10% FBS and gentamicin.
as §3, §4

In series [5] the test system is LoVo human colon adenocarcinoma. In words: Cytotoxicity test (sulforodamine B), LoVo. As to conditions: 24 h exposure, 48 h recovery, SRB. The class given is cell-based. The protocol: as §1, §5
(§7) For the cytotoxicity test the cells were seeded at variable densities according to cell type in 96-well plates in normal culture medium (200 μl/well) and incubated for 24 hours at 37° C. On the next day, the study substances were added at scalar concentrations and the cells were incubated for a further 24 hours at 37° C. in a humidified atmosphere containing 5% CO2. At the end of the incubation period the medium containing the substances was removed and three washings with PBS were performed. At the end of the washings 200 μl/well of fresh medium were added and the plates were incubated at 37° C. for a further 48 hours. At the end of this incubation period the culture medium was removed by overturning the plates and 200 μl/well of PBS and 50 μl of 80% cold trichloroacetic acid (TCA) were added. The plates were then incubated in ice. […] The optical density was measured by spectrophotometric readout at 540 nm. […]

For series [6], the system named is PC3 human prostate carcinoma. In words: Cytotoxicity test (sulforodamine B), PC3. The series is classed as cell-based. As to conditions: 24 h exposure, 48 h recovery, SRB. The protocol:
as §1, §5, §7

The subject of series [7] is MCF-7 human breast carcinoma. The series can be described thus: Cytotoxicity test (sulforodamine B), MCF-7. The class given is cell-based. As to conditions: Homo sapiens, MCF7, read-out: IC50 ± SE. The protocol: as §1, §5, §3, §4
Series [8] relates to M109 murine lung cancer line. The series can be described thus: Cytotoxicity test (sulforodamine B), M109. The following applies: Mus musculus, 24 h exposure, 48 h recovery, SRB. The class given is cell-based. Here is the method:
as §1, §2
as §7, with “ice. After 1 h the TCA was removed, the plates were washed three times by immersion in distilled water and dried first on blotting paper and then in the oven.” for “ice.”

The test system of a further series is MeWo human melanoma. In words: Cytotoxicity test (sulforodamine B), MeWo. As to conditions: Homo sapiens, read-out: IC50 ± SE. The series is classed as cell-based. The protocol:
as §1, §5, §3, §4

The test system of series [9] is B16/BL6 murine melanoma line. The series can be described thus: Cytotoxicity test (sulforodamine B), B16/BL6. The class given is cell-based. As to conditions: Mus musculus, B16-BL6, read-out: IC50 ± SE. The protocol: as §1
The B16/BL6 murine melanoma line, obtained from the M. Negri Institute in Milan, was cultured in DMEM containing 10% FBS and antibiotics.
as §3, §4

In series [10] the test system is tubulin rich in microtubule-associated proteins (MAP). The series can be described thus: Tubulin polymerisation inhibition test. The series is classed as biochemical. The following applies: vs not treated control; mean of 3 independent determinations; concentration not given. Here is the method: The tubulin polymerisation test in the presence of ST2151 was performed as described by Shiff et al. (Biochemistry, 1981, 20: 3247-3252) with a number of modifications. In brief, tubulin rich in microtubule-associated proteins (MAP) was diluted to the concentration of 3 mg/ml in PEM buffer [100 mM PIPES (pH 6.9), 1 mM EGTA and 1 mM MgCl2] containing 1 mM GTP (GPEM), and maintained in ice. The solution was placed at 37° C. and polymerisation was monitored by measuring absorbance at 340 nm every 25 seconds with a spectrophotometer equipped with an electronic temperature control device (Cobas-Mira Analyzer). After 5 minutes, when the polymerised tubulin had reached a steady state, 5 μM Taxol, 1.35 μM Colcemid, or ST2151 were added and the absorbance measurements were taken for a further 15 min. The IC50 values were determined by non-linear regression analysis using “Prism GraphPad” software. Results were expressed as % inhibition of tubulin polymerization vs not treated control.
The value indicated in Table 2 is the mean of 3 independent determinations.

The subject of series [11] is HT29 human colon adenocarcinoma line. In words: Cytotoxicity test (sulforodamine B), HT29. As to conditions: Homo sapiens, HT-29, read-out: IC50 ± SE. The series is classed as cell-based. Here is the method: as §1, §2, §3, §4
Series [12] concerns EA-hy926, an immortalised hybridoma of HUVEC and adenocarcinoma cells. The series can be described thus: Cytotoxicity test (sulforodamine B), EA-hy926. The series is classed as cell-based. As to conditions: Homo sapiens, EA.hy 926; EAHY.926; 24 h exposure, 48 h recovery, SRB. The protocol:
as §1, §6
as §7, with “hours.” for “hours. At the end of this incubation period the culture medium was removed by overturning the plates and 200 μl/well of PBS and 50 μl of 80% cold trichloroacetic acid (TCA) were added. The plates were then incubated in ice.”

In series [13] the test system is MES-SA human uterine sarcoma. The series can be described thus: Cytotoxicity test (sulforodamine B), MES-SA. The series is classed as cell-based. As to conditions: Homo sapiens, MES-SA, read-out: IC50 ± SE. Here is the method:
as §1, §5, §3, §4

The conditions of series [14]: Cancer Res., 62:3408-3416, 2002; cited from earlier work.
Series [15] concerns Human umbilical vein endothelial cells (HUVEC). In words: Cytotoxicity test (sulforodamine B), HUVEC. The series is classed as cell-based. The following applies: Homo sapiens, read-out: IC50 ± SE. Here is the method:
as §1
Human umbilical vein endothelial cells (HUVEC), from the BioWhittaker company, were maintained in EGM-2 culture medium (BioWhittaker).
as §3, §4

Series [16] in a line: Evaluation of cardiovascular parameters (blood pressure, heart rate) in anaesthetised rats. The series is classed as in vivo. As to conditions: 20 or 40 mg/kg injected in the jugular vein, anaesthetised Wistar rats (FIG. 1). Here is the method: Combretastatin A4, its prodrug ST2494 and our water soluble selected compounds ST2495 and ST2496, diluted at the doses of 20 or 40 mg/kg in saline solution or for combretastatin A4 in 5% DMSO, were injected in the jugular vein of Wistar rats anaesthetised with 55 mg/kg Nembutal. The parameter considered were blood pressure and heart rate.

The next series deals with cell growth. The following applies: background statement; cited from earlier work.

On to `COc1cc(/C=C\c2cc(O)c3ccoc3c2)cc(OC)c1OC` [ST2179, Cis-6-[2-(3,4,5-trimethoxy-phenyl)-vinyl]-benzofuran-4-ol], for which the IC50 is 50 ± 2 nM in series [1]; 54 ± 9 nM in [2]; 53 ± 1.3 nM in series [3]; 49 ± 1 nM in series [4]; 490 ± 0.04 nM in [5]; 100 ± 0.01 nM in series [6]. The IC50 turned out to be 38 ± 3 nM in [7]; 93 ± 6 nM in series [8]; 71 ± 17 nM in the series on MeWo human melanoma; 44 ± 3.8 nM in series [9]; 990 ± 40 nM in series [11]; 40 ± 3.9 nM in series [12]. Besides, the IC50 in series [13] came out at 40 ± 4 nM. In series [10], the “% inhibition of tubulin polymerization” value came out at 44.0%.
Take `COc1ccc(/C=C\c2cc(OC)c(OC)c(OC)c2)cc1OP(=O)(O)O` [combretastatin A4-P]: the “side effects in Phase I study” value in series [14] is “episodes of dose-limiting toxicity, including cases of acute coronary syndrome”.
`COc1cc(/C=C\c2cc(O)c3ccsc3c2)cc(OC)c1OC` [ST2151, Cis-6-[2-(3,4,5-trimethoxy-phenyl)-vinyl]-benzo[b]thiophen-4-ol]: the IC50 in [1] was determined as 70 ± 2 nM; in [2], 84 ± 3.8 nM; in [3], 74 ± 2.9 nM; in series [4] it was 87 ± 1 nM; in series [5], 360 ± 0.01 nM; in [6] it was 120 ± 0.01 nM. Further, the IC50 in [7] amounted to 66 ± 2.7 nM; in [8] it was 490 ± 30 nM; with MeWo human melanoma, 68 ± 5 nM; in [9] it was 85 ± 0.5 nM; in [15] it was 49 ± 0.64 nM; in series [11], 900 ± 65 nM. Also, the IC50 worked out at 52 ± 4.9 nM in [12] and 86 ± 10 nM in series [13]. The “% inhibition of tubulin polymerization” value in [10] amounted to 37.1%.
Take `COc1ccc(/C=C\c2cc(OC)c(OC)c(OC)c2)cc1O` [Combretastatin A4, Combretastatin A-4, reference compound]: in series [16], the blood pressure entry is on record as “significant increase in blood pressure” and the heart rate result was “progressive decrease of heart rate”. For the same molecule, in the series with cell growth, the “concentration inhibiting cell growth” value is on record as “of the order of nanomoles”.
